According to publication PMC9865752, “Design and Synthesis of (Z)-2-(Benzylamino)-5-benzylidenethiazol-4(5H)-one Derivatives as Tyrosinase Inhibitors and Their Anti-Melanogenic and Antioxidant Effects” (Molecules, 2023):

Tests used:
[1] = tested on: B16F10 cells; experiment: Measurement of extracellular and intracellular melanin levels; format: cell-based, murine; details: α-MSH plus IBMX stimulated B16F10 cells, 72 h
Procedure: To investigate the effects of derivative 8 on extracellular and intracellular melanin levels in B16F10 cells, the cells were treated with various concentrations (5, 10, and 20 µM) of derivative 8 for 1 h, in addition to co-treatment with α-MSH (0.5 µM) and 3-isobutyl-1-methylxanthine (IBMX; 200 µM) to enhance melanin biosynthesis in B16F10 cells. After 72 h of incubation, the effects of 8 on extracellular and intracellular melanin levels were determined by measuring the melanin absorbance in the culture media and cell lysates, respectively, at 405 nm using a microplate reader.
The effect of 8 on melanin production was measured using a standard melanin content assay, with minor modifications. Briefly, B16F10 cells were seeded at a density of 1 × 10^5 cells per well and allowed to adhere to the well bottoms for 24 h under the conditions used for cell cultures. […] After incubation for 72 h at 37 °C in a 5% CO2 atmosphere, melanin levels were determined. To measure the extracellular melanin levels, the absorbance of each well of the culture medium was measured at 405 nm. […] Cultured cells were washed twice with PBS, and the pellets obtained were dissolved using 1 N NaOH solution (200 µL, 10% DMSO) at 60 °C for 1 h. Cell lysates were transferred to the wells of a 96-well plate, and the optical density of melanin dissolved in each well was measured at 405 nm in aqueous DMSO solution using a microplate reader (VersaMax; Molecular Devices).

[2] = SIN-1-induced ROS scavenging assay; details: 20 µM; SIN-1 as ROS generator; DCFH-DA probe
Excerpt: The scavenging activities of the BABT derivatives 1–14 against ROS and peroxynitrite (ONOO^−) were investigated because the antioxidant activities of the compounds may modulate melanogenesis. To measure the ROS scavenging activities of BABT derivatives, 2′,7′-dichlorodihydrofluorescein diacetate (DCFH-DA) and 3-morpholinosydnonimine (SIN-1) were used as a fluorogenic probe and ROS generator, respectively. The reaction of DCFH-DA with esterase produces 2′,7′-dichlorodihydrofluorescein (DCFH), which generates the fluorescent compound 2′,7′-dichlorofluorescein (DCF) by reacting with ROS produced by SIN-1. Therefore, ROS scavenging activities were determined by measuring the DCF fluorescence remaining after the BABT derivatives scavenged the ROS generated by SIN-1. […] BABT derivatives and Trolox, the positive control, were used at a concentration of 20 µM.
The ROS scavenging activities of the BABT derivatives were measured using an oxidant-sensitive fluorescent probe. Derivatives or Trolox (10 µL; final concentration: 20 µM) were seeded in a black 96-well plate. Then, 10 µL of SIN-1 (10 µM) was added to induce radical species generation and mixed with 180 µL of sodium phosphate buffer (pH 7.4) containing 12.5 µM DCF-DA and 600 units of esterase. Fluorescence intensity was measured at emission and excitation wavelengths of 535 and 485 nm, respectively, using a fluorescence microplate reader (Berthold Technologies GmbH & Co., Wien, Austria). Trolox was used as the positive control.

O=C1N=C(NCc2ccccc2)S/C1=C\c1ccc(O)cc1O [Compound 8, (Z)-2-(benzylamino)-5-(2,4-dihydroxybenzylidene)thiazol-4(5H)-one]
extracellular melanin levels compared to untreated control ([1]; 5 µM): 1.22 fold
intracellular melanin levels (in words) ([1]; 5 µM): more potent inhibitory activity on melanin production than kojic acid at 20 µM
extracellular melanin levels compared to untreated control ([1]; 10 µM): 1.03 fold
extracellular melanin levels compared to untreated control ([1]; 20 µM): 1.00 fold
intracellular melanin levels (in words) ([1]; 20 µM): lower than those in the untreated control
ROS scavenging activity (in words) [2]: did not show significant ROS scavenging effect
